Experimental data from publication PMC5433008 (BMC Neuroscience, 2017).
Where a SMILES comes first, the peptide text is derived from it.

Legend:
[1] = system: NMDA-evoked currents in cultured rat embryonic hippocampal neurons (NMDAr); details: for IC50: pH 7.4
[2] = system: GluN1a–GluN2A; assay type: cell-based
[3] = system: GluN1a–GluN2B; assay type: cell-based
[4] = system: recombinant NMDAr comprised of either GluN1a–GluN2A or GluN1a–GluN2B subunits; assay type: cell-based

Row | Structure (SMILES) | IC50 [1] [µM] | block of NMDA-evoked currents, GluN1a–GluN2A [2] [%] | dose dependence of inhibition [1] | off rate (from transient current increase on simultaneous removal of NMDA + peptide) [1] | reversibility of block [1] | use-dependence of block [1] | block of NMDA-evoked currents, GluN1a–GluN2B [3] [%] | difference between control-NMDA and wash-NMDA (reversibility) [4] | off rate (from short-lived current increase on simultaneous removal of NMDA + peptide) [4] | reversibility, recombinant NMDAr versus neuronal NMDAr [4]
1 | CC[C@H](C)[C@H](NC(=O)[C@H](CC(C)C)NC(=O)[C@H](CC(=O)O)NC(=O)[C@H](CCC(N)=O)NC(=O)[C@H](C)NC(=O)[C@H](CC(=O)O)NC(=O)[C@H](CCC(N)=O)NC(=O)[C@H](Cc1ccc(O)cc1)NC(=O)[C@H](CC(=O)O)NC(=O)[C@H](CC(=O)O)NC(=O)[C@H](CCC(=O)O)NC(=O)CN)C(=O)N[C@@H](CCCNC(=N)N)C(=O)N[C@@H](CC(=O)O)C(=O)N[C@@H](CCCCN)C(=O)N[C@@H](CO)C(=O)N[C@@H](CC(N)=O)C(=O)O [EAR18] (H-GEDDYQDAQDLIRDKSN-OH) | 176 |  |  |  |  |  |  |  |  | 
2 | CC[C@H](C)[C@H](NC(=O)[C@H](CC(C)C)NC(=O)[C@H](CC(=O)O)NC(=O)[C@H](CCC(N)=O)NC(=O)[C@H](CC(N)=O)NC(=O)[C@H](CC(=O)O)NC(=O)[C@H](CCC(N)=O)NC(=O)[C@H](CC(C)C)NC(=O)[C@H](CC(=O)O)NC(=O)[C@H](CC(=O)O)NC(=O)[C@H](CCC(=O)O)NC(=O)CN)C(=O)N[C@@H](CCCNC(=N)N)C(=O)N[C@@H](CC(=O)O)C(=O)N[C@@H](CCCCN)C(=O)N[C@@H](CO)C(=O)N[C@@H](CC(N)=O)C(=O)O [EAR16] (H-GEDDLQDNQDLIRDKSN-OH) | 241 | 50 | dose-dependent | fast enough that would allow binding of NMDA early on during washout | highly reversible | no clear use-dependence | 84 | No significant difference | fast enough that would allow binding of NMDA early on during washout | faster from the recombinant NMDAr than from NMDAr expressed in neuronal cells
